Source: US10023593B2, “ALK kinase inhibitor, and preparation method and uses thereof” (BEIJING PEARL BIOTECHNOLOGY LIMITED LIABILITY COMPANY, priority 2014, dated 2018)

Each compound was assayed on NCI-H2228 cell line (assay: CellTiter-Glo cell proliferation inhibition on NCI-H2228 cell line). Conditions: Homo sapiens, NCI-H2228, 96 h, NCI-H2228 cells, 5000 cells/well, 4 days drug treatment.
Format: cell-based
Description: 3. Cell Proliferation Inhibitory Activities of the Compounds of the Present Invention on NCI-H2228 Cell Line
? experimental method ? CellTiter-Glo® Luminescent Cell Viability Assay kit from Promega company was used to detect cell proliferation inhibitory activities of the compounds on NCI-H2228 cell line.
? instrument ? Envision 2104 plate reader from PerKinElmer company; Vi-Cell XR cell counter from Beckman Counter company; MCO-18AIC CO2 incubator from SANYO company.
? experiment material ? CellTiter-Glo® Luminescent Cell Viability Assay Kit (Promega company, catalog No. G7573); NCI-H2228 cell line (ATCC, catalog No. CRL-5935); RPMI-1640 medium (HyClone company, catalog No. SH30809.01B); fetal bovine serum (FBS) (Gibco company, catalog No. 10099-141); trypsin (Trypsin) (Gibco company, catalog No. 25200-072); PBS (HyClone company, catalog No. SH30256.01B); 96 wells cell culture plate (Corning company, catalog No. 3610); DMSO (AMRESCO company, catalog No. 0231); 96 wells plates (for diluting compounds) (CITOTEST company, catalog No. Ref36020096D);
? experimental condition ? NCI-H2228 cells in exponential growth phase were collected and treated with trypsin (Trypsin), and viable cells were counted by Vi-Cell XR cell counter. Cell suspension was adjusted to 62500 cells/ml with culture medium (RPMI-1640+10% FBS). 80 μl cell suspension was added into each well of 96 wells cell culture plate so that the final cell number of NCI-H2228 cells was 5000 cells/well. The cells were cultivated in an incubator with an atmosphere of 37° C., 5% CO2 and 95% humidity for 2 hours and then each well was added with 20 μl compounds in RPMI-1640 medium solution (the final concentration of DMSO was 0.5%). 4 days after drug treatment, each well was added with 50 μl CellTiter-Glo solution which was previously thawed and equilibrated to room temperature, and mixed for 2 minutes with microplate shaker. After placing at room temperature for 10 minutes, luminescence value was measured by PerkinElmer Envision 2104 plate reader and the data was analyzed.
? tested samples ? Compounds of the examples.
? data analysis ? Luminescence value of DMSO solvent control (Vvehicle control, which is the mean luminescence value from DMSO solvent control group)
Tested luminescence value (Vsample, which is the luminescence value from given concentration of compounds group) Inhibition rate (%)=(1−Vsample/Vvehicle control)×100
? data processing ? IC50 of compounds was calculated by using XLfit program in Excel.

| Compound | IC50 |
| --- | --- |
| Cc1cc(Nc2ncc(Cl)c(Nc3cn(C)nc3S(=O)(=O)CC(C)C)n2)c(OC2CC2)cc1[C@H]1CC[C@@H](NC(C)C)CC1 [Final product 181] | 106 nM |
| COCCN1CCC(c2cc(OC(C)C)c(Nc3ncc(Cl)c(Nc4cn(C)nc4S(=O)(=O)C(C)C)n3)cc2C)CC1 [Final product 142, 5-chloro-N^2-(2-isopropoxy-4-(1-(2-methoxyethyl)piperidin-4-yl)-5-methyl-phenyl)-N^4-(3-(isopropylsulfonyl)-1-methyl-1H-pyrazol-4)-pyrimidin-2,4-diamine] | 140 nM |
| Cc1cc(Nc2ncc(Cl)c(Nc3cn(C)nc3S(=O)(=O)C(C)C)n2)c(OC2CC2)cc1C1CCC(N2CCCC2)CC1 (stereo not drawn) [Final product 201] | 149 nM |
| Cc1cc(Nc2ncc(Cl)c(Nc3cn(C)nc3S(=O)(=O)C(C)C)n2)c(OC(C)C)cc1C1CN(C(C)C)C1 [Final product 132] | 207 nM |
| CCN(CC)[C@H]1CC[C@H](c2cc(OC(C)C)c(Nc3ncc(Cl)c(Nc4cn(C)nc4S(=O)(=O)C(C)C)n3)cc2C)CC1 [Final product 184] | 188 nM |
| Cc1cc(Nc2ncc(Cl)c(Nc3cn(C)nc3S(=O)(=O)C(C)C)n2)c(OC(C)C)cc1[C@H]1CC[C@@H](NC(C)C)CC1 [Final product 187] | 111 nM |
| Cc1cc(Nc2ncc(Cl)c(Nc3cn(C)nc3S(=O)(=O)C(C)C)n2)c(OC(C)C)cc1[C@H]1CC[C@@H](NC2CC2)CC1 [Final product 185] | 296 nM |
| CC(=O)N1CCN([C@H]2CC[C@@H](c3cc(OC4CC4)c(Nc4ncc(Cl)c(Nc5cn(C)nc5S(=O)(=O)C(C)C)n4)cc3C)CC2)CC1 [Final product 203] | 189 nM |
| Cc1cc(Nc2ncc(Cl)c(Nc3cn(C)nc3S(=O)(=O)C(C)C)n2)c(OC2CC2)cc1C1CC2COCC(C1)N2C (stereo not drawn) [Final product 74] | 19 nM |
| Cc1cc(Nc2ncc(Cl)c(Nc3cn(C)nc3S(=O)(=O)C(C)C)n2)c(OC(C)C)cc1C1CCN(CCO)CC1 [Final product 136] | 112 nM |
| Cc1cc(Nc2ncc(F)c(Nc3cn(C)nc3S(=O)(=O)C(C)C)n2)c(OC(C)C)cc1C1CCN(C)CC1 [Final product 71] | 199 nM |
| CC(C)Oc1cc(C2CCN(C)CC2)c(C2CC2)cc1Nc1ncc(Cl)c(Nc2cn(C)nc2S(=O)(=O)C(C)C)n1 [Final product 68] | 150 nM |
| Cc1cc(Nc2ncc(Cl)c(Nc3cn(C)nc3S(=O)(=O)C(C)C)n2)c(OC(C)C)cc1C1CCCN(CCO)C1 (stereo not drawn) [Final product 141] | 147 nM |
| CCCc1cc(Nc2ncc(Cl)c(Nc3cn(C)nc3S(=O)(=O)C(C)C)n2)c(OC(C)C)cc1C1CCN(C)CC1 [Final product 69] | 178 nM |

Now from value to compound:

| IC50 | Compound |
| --- | --- |
| 57 nM | Cc1cc(Nc2ncc(Cl)c(Nc3cn(C)nc3S(=O)(=O)CC(C)C)n2)c(OC2CC2)cc1C1CCN(C(C)(C)CO)CC1 [Final product 149] |
| 31 nM | COc1cc(C2CCN(C)CC2)c(C)cc1Nc1ncc(Cl)c(Nc2cn(C)nc2S(=O)(=O)C(C)C)n1 [Final product 64] |
| 47 nM | CCOc1cc(C2CCN(C(C)C)CC2)c(C)cc1Nc1ncc(Cl)c(Nc2cn(C)nc2S(=O)(=O)C(C)C)n1 [Final product 125] |
| 60 nM | Cc1cc(Nc2ncc(Cl)c(Nc3cn(C)nc3S(=O)(=O)C(C)C)n2)c(OC2CCC2)cc1C1CCN(C(C)(C)CO)CC1 [Final product 153] |
| 105 nM | Cc1cc(Nc2ncc(Cl)c(Nc3cn(C)nc3S(=O)(=O)CC(C)C)n2)c(OC2CC2)cc1C1CCCN(CCO)C1 (stereo not drawn) [Final product 140] |
| 48 nM | COCCN1CCC(c2cc(OC3CCC3)c(Nc3ncc(Cl)c(Nc4cn(C)nc4S(=O)(=O)C(C)C)n3)cc2C)CC1 [Final product 144, 5-chloro-N^2-(2-cyclobutyloxy-4-(1-(2-methoxyethyl)piperidin-4-yl)-5-methyl-phenyl)-N^4-(3-(isopropylsulfonyl)-1-methyl-1H-pyrazol-4)-pyrimidin-2,4-diamine] |
| 26 nM | Cc1cc(Nc2ncc(Cl)c(Nc3cn(C)nc3S(=O)(=O)C(C)C)n2)c(OC2CC2)cc1C1CCN(C)C(C(=O)N(C)C)C1 (stereo not drawn) [Final product 101] |
